For 3 compounds, IC50 and CC50 results are on record in ChEMBL document CHEMBL1821711, “Design and synthesis of novel arylpiperazine derivatives containing the imidazole core targeting 5-HT(2A) receptor and 5-HT transporter” (J Med Chem, 2011).

Some targets named below: D(2) dopamine receptor (Homo sapiens, UniProt P14416); D(3) dopamine receptor (Homo sapiens, UniProt P35462); Cytochrome P450 2C9 (Homo sapiens, UniProt P11712); Cytochrome P450 2D6 (Homo sapiens, UniProt P10635); Cytochrome P450 3A4 (Homo sapiens, UniProt P08684).
Series [1] addresses T1, 5-hydroxytryptamine receptor 1A (Homo sapiens, UniProt P08908).
T1 sequence (P08908 whole entry): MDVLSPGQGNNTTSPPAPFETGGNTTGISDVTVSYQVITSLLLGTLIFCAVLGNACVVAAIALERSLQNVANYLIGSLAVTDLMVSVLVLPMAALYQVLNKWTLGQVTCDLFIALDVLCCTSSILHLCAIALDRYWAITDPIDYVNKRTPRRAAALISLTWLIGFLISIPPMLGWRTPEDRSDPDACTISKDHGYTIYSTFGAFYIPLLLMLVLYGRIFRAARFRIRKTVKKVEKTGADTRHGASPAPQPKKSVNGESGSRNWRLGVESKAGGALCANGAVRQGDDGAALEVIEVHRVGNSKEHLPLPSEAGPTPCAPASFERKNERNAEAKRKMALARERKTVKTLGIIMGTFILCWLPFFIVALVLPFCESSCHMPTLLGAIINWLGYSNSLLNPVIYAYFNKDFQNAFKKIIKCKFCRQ
Description: Inhibition of 5HT1A receptor by competition binding assay

The target of series [2] is 5-hydroxytryptamine receptor 6 (Homo sapiens, UniProt P50406).
Description: Inhibition of 5HT6 receptor by competition binding assay
The target of series [3] is 5-hydroxytryptamine receptor 7 (Homo sapiens, UniProt P34969).
Description: Inhibition of 5HT7 receptor by competition binding assay
For a further series, the target named is T2, D(4) dopamine receptor (Homo sapiens, UniProt P21917).
T2 sequence (P21917 whole entry): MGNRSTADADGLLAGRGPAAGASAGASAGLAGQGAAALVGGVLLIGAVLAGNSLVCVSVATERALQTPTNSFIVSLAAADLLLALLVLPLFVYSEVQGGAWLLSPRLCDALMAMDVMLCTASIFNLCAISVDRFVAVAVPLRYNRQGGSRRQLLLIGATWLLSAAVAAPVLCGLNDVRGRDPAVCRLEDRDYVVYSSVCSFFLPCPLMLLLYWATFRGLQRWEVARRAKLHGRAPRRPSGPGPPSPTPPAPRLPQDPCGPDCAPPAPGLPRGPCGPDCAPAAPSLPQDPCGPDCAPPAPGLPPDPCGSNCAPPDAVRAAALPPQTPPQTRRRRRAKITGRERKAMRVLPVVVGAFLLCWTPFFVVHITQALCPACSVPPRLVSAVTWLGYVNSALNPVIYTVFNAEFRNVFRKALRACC

For series [4], the target named is Voltage-gated inwardly rectifying potassium channel KCNH2 (Homo sapiens, UniProt Q12809).
Description: Displacement of [3H]astemizole from human ERG expressed in HEK293 cells
Series [5] has as its target T3, 5-hydroxytryptamine receptor 2C (Homo sapiens, UniProt P28335).
T3 sequence (P28335 whole entry): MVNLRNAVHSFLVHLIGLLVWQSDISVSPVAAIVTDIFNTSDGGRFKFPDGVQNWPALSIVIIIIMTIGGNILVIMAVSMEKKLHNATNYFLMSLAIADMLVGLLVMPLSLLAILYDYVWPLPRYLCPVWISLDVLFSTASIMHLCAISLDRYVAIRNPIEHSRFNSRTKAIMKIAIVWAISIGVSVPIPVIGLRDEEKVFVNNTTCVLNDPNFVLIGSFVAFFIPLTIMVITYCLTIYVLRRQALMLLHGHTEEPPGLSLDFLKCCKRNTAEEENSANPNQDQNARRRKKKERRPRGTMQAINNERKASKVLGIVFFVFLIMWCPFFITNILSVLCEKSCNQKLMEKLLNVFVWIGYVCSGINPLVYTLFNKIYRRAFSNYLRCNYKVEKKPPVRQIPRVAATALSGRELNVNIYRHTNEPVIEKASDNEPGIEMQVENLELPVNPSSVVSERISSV
Briefly: biochemical. It counts as cell-based, CHO-K1.
Description: Displacement of [3H]mesulergine from human recombinant 5-HT2C receptor expressed in CHO-K1 cells

For another series, the target named is T4, Cytochrome P450 1A2 (Homo sapiens, UniProt P05177).
T4 sequence (P05177 whole entry): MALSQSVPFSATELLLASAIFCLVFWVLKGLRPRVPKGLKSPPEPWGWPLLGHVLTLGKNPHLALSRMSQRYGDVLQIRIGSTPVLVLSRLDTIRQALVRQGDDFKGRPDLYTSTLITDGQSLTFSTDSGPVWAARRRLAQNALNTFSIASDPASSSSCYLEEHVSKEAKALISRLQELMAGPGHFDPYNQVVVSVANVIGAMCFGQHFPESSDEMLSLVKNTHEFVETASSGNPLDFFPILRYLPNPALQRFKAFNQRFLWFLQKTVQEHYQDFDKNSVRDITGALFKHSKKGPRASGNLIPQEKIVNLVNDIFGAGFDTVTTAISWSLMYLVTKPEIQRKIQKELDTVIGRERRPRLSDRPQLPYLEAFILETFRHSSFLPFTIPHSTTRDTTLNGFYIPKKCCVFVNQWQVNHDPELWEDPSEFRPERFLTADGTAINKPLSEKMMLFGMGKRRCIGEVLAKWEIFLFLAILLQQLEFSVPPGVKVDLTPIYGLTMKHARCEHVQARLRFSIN

A short description of another series: in vitro. The note with it: mouse, ht-22.

Sequence of D(3) dopamine receptor (P35462 whole entry): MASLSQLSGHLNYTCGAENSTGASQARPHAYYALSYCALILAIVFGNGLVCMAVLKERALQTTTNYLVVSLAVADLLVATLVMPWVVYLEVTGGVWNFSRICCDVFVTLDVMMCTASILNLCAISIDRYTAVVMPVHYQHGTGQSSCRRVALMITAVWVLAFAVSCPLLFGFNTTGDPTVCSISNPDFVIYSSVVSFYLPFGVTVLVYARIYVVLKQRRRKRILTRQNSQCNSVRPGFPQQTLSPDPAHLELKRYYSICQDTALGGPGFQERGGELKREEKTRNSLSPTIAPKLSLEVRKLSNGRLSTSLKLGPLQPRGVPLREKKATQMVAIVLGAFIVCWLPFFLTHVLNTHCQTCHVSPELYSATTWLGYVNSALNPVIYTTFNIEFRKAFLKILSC
Sequence of Voltage-gated inwardly rectifying potassium channel KCNH2 (Q12809 whole entry): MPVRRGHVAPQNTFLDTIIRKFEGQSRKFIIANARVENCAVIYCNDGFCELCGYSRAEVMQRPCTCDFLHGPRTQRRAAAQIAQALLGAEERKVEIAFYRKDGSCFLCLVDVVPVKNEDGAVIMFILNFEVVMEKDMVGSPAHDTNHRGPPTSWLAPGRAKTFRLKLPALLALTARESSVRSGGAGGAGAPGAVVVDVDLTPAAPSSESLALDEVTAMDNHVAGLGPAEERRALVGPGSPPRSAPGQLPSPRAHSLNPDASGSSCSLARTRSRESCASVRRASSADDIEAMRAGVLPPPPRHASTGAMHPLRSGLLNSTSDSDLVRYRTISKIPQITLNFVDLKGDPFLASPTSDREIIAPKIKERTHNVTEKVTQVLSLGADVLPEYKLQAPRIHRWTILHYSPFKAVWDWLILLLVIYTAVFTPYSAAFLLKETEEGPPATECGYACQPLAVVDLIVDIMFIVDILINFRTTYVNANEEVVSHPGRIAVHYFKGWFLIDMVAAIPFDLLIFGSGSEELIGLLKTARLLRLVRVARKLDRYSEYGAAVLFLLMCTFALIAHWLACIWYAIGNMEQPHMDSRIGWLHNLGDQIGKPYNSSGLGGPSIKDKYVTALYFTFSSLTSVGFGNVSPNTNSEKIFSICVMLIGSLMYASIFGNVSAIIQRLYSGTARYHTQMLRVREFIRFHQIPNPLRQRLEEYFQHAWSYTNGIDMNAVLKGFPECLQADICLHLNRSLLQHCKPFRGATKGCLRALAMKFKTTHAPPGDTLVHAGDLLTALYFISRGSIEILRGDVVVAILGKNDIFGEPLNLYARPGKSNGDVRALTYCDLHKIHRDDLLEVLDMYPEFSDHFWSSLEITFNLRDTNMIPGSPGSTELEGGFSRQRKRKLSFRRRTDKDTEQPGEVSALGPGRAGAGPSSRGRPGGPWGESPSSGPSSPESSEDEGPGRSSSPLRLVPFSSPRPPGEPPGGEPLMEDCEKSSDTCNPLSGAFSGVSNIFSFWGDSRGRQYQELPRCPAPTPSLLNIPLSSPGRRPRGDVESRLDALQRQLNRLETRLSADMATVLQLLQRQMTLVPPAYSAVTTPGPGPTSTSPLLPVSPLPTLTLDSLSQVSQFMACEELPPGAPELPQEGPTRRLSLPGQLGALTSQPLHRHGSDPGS
Sequence of D(2) dopamine receptor (P14416 whole entry): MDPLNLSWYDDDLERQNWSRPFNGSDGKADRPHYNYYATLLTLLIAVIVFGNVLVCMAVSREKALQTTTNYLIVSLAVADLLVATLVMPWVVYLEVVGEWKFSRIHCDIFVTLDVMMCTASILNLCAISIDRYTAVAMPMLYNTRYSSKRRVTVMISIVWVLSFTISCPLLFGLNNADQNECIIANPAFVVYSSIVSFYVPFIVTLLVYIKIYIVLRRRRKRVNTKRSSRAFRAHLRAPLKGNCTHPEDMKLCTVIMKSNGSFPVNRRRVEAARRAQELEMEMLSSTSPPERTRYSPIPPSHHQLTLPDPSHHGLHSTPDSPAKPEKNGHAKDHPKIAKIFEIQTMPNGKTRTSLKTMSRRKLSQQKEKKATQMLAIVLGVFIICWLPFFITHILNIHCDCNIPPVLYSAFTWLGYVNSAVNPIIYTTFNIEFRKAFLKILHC
Sequence of 5-hydroxytryptamine receptor 6 (P50406 whole entry): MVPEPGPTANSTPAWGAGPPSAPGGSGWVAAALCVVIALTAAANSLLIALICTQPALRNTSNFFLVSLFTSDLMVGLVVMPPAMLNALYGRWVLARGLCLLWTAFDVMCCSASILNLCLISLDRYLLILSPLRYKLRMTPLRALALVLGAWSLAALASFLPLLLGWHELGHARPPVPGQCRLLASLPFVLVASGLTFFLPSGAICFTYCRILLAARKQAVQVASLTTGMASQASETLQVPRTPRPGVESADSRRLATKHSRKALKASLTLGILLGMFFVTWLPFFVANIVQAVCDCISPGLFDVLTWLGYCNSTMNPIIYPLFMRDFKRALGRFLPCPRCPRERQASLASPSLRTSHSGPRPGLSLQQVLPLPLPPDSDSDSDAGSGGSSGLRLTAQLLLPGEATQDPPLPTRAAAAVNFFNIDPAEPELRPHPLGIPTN
Sequence of 5-hydroxytryptamine receptor 7 (P34969 whole entry): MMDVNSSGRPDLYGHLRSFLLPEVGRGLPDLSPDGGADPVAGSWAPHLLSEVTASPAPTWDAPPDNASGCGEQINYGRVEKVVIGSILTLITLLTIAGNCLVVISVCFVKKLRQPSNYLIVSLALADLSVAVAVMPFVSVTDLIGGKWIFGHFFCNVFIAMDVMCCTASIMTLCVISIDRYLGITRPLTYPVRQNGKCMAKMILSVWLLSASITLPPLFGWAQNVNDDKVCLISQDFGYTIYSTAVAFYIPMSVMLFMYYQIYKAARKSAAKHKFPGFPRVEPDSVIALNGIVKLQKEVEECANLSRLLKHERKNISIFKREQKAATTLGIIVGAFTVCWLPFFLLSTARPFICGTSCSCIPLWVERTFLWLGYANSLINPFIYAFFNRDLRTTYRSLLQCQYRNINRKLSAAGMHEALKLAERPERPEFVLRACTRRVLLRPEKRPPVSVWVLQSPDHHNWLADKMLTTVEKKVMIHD
Sequence of Cytochrome P450 2D6 (P10635 whole entry): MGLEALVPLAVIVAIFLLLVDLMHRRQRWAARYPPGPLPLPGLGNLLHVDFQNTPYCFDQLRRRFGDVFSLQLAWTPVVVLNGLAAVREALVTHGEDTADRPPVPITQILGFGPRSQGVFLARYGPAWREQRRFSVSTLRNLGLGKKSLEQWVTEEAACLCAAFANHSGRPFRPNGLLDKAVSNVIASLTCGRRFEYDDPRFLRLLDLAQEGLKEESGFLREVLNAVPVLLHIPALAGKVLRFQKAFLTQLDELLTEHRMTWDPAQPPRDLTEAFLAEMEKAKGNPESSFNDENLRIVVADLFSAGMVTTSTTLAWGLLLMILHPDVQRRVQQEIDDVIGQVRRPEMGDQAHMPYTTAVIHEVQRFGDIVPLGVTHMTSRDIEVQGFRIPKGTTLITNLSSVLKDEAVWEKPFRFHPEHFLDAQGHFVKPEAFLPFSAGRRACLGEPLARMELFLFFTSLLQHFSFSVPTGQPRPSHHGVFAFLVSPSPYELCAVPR
Sequence of Cytochrome P450 3A4 (P08684 whole entry): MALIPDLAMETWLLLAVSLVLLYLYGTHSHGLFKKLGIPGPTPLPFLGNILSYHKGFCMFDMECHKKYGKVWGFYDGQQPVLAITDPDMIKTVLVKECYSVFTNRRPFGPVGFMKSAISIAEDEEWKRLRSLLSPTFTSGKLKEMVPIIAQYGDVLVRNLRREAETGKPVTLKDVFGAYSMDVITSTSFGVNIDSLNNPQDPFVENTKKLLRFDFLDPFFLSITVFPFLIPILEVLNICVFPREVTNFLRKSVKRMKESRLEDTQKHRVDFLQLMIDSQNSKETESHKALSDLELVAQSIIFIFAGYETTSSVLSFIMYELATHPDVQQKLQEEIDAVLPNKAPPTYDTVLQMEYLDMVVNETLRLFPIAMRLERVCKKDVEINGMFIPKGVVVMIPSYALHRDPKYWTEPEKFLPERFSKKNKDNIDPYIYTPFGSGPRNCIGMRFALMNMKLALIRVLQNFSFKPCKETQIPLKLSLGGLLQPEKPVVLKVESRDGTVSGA
Sequence of Cytochrome P450 2C9 (P11712 whole entry): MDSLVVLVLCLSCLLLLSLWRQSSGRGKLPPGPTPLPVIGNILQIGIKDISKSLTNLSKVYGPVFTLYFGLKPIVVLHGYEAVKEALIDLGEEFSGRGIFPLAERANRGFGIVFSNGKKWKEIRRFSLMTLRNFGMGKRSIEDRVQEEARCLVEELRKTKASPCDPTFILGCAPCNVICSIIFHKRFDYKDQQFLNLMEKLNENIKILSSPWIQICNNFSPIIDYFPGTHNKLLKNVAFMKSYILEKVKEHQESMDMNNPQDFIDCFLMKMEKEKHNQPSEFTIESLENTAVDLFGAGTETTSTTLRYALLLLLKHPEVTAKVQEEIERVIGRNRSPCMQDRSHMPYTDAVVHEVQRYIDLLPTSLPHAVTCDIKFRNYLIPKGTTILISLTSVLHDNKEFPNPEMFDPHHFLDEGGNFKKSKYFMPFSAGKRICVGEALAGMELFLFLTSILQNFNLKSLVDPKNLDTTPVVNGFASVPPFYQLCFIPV
Description for Cytochrome P450 1A2: Inhibition of human recombinant CYP1A2 by luceferin-based assay
Description for Cytochrome P450 2C9: Inhibition of human recombinant CYP2C9 by luceferin-based assay
Description for Cytochrome P450 2D6: Inhibition of human recombinant CYP2D6 by luceferin-based assay
Description for Cytochrome P450 3A4: Inhibition of human recombinant CYP3A4 by luceferin-based assay
Description for D(2) dopamine receptor: Inhibition of dopamine D2 receptor by competition binding assay
Description for D(3) dopamine receptor: Inhibition of dopamine D3 receptor by competition binding assay
Description for D(4) dopamine receptor: inhibition of dopamine D4 receptor by competition binding assay
Description for in vitro: Cytotoxicity against mouse HT22 cells after 48 hrs by MTT assay

For orientation: IC50 means the concentration needed to halve the response being measured. For `Cc1nc(C(=O)NCCN2CCN(c3cccc(Cl)c3Cl)CC2)c(C)n1-c1ccccc1`, the IC50 turned out to be 3.9 nM in series [1]; 1680 nM in [2]; 6.8 nM in [3]; 908 nM against D(2) dopamine receptor; 2190 nM on D(3) dopamine receptor; 3940 nM on D(4) dopamine receptor. In addition, in series [4], the IC50 is greater than 10000 nM.
`Cc1cccc(N2CCN(CCCNC(=O)c3nc(C)n(-c4ccc5c(c4)OCCO5)c3C)CC2)c1C`: the IC50 in series [5] was 4000 nM; in series [4], 8700 nM; against Cytochrome P450 1A2 it was greater than 20000 nM; against Cytochrome P450 2C9 it was 4400 nM; against Cytochrome P450 2D6, 17900 nM; against Cytochrome P450 3A4 it was greater than 20000 nM. Further, in “in vitro”, the CC50 at 48 h is 19300 nM.
In the case of `Cc1nc(C(=O)NCCCN2CCN(c3cccc(Cl)c3Cl)CC2)c(C)n1-c1ccccc1`, the IC50 in series [1] is 4.9 nM; in [2], 136 nM; in series [3] it was 11 nM; against D(2) dopamine receptor, 1370 nM; on D(3) dopamine receptor, 493 nM; against D(4) dopamine receptor, greater than 10000 nM.
